# Laboratory results published in ChEMBL document CHEMBL3885861, “Open TG-GATES”.
# Species on record: Rattus norvegicus
# Experiment: Open TG-GATES - Regimen: Single
# Type: toxicity, organism-based, Sprague-Dawley
# Design: regimen Single, gender Male, age 6 weeks
# Details: in vivo, po, 15 mg/kg, route gavage; for TC / TP / gamma-GTP / ALP / ALT / AST / BUN / CRE / Ca / Cl / DBIL / GLC / IP / K / LDH / Na / PL / RALB / TBIL: tissue Plasma; for APTT / Bas / Eos / Fbg / Hb / Ht / Lym / MCH / MCHC / MCV / Mono / Neu / PT / Plat / RBC / Ret / WBC: tissue Blood; for KIDNEY_L / KIDNEY_R / KIDNEY_TOTAL: tissue Kidney; for LIVER: tissue Liver
structure (smiles),measurement,setting,value
O=P1(N(CCCl)CCCl)NCCCO1 (stereo not given) [CYCLOPHOSPHAMIDE ANHYDROUS],TC,"3 h, dose level Low",68.6 mg/dL
same,TP,"3 h, dose level Low",5.2 g/dL
same,gamma-GTP,"3 h, dose level Low",1.2 IU/L
same,TERMINAL_BW,"6 h, dose level High",193.9 g
same,TERMINAL_BW,"6 h, dose level Low",190.6 g
same,APTT,"6 h, dose level High",21.7 s
same,Bas,"6 h, dose level High",0%
same,Eos,"6 h, dose level High",0.6%
same,Fbg,"6 h, dose level High",313.4 mg/dL
same,Hb,"6 h, dose level High",13.3 g/dL
same,Ht,"6 h, dose level High",39.9%
same,Lym,"6 h, dose level High",79.4%
same,MCH,"6 h, dose level High",21.5 pg
same,MCHC,"6 h, dose level High",33.3%
same,MCV,"6 h, dose level High",64.8 fL
same,Mono,"6 h, dose level High",2.2%
same,Neu,"6 h, dose level High",17.4%
same,PT,"6 h, dose level High",15.6 s
same,Plat,"6 h, dose level High",122.7 x10_4/uL
same,RBC,"6 h, dose level High",616.8 x10_4/ul
same,Ret,"6 h, dose level High",9%
same,WBC,"6 h, dose level High",68.2 x10_2/uL
same,APTT,"6 h, dose level Low",20.3 s
same,Eos,"6 h, dose level Low",1.2%
same,Fbg,"6 h, dose level Low",302 mg/dL
same,Hb,"6 h, dose level Low",13 g/dL
same,Ht,"6 h, dose level Low",38.9%
same,Lym,"6 h, dose level Low",80.6%
same,MCH,"6 h, dose level Low",20.9 pg
same,MCHC,"6 h, dose level Low",33.4%
same,MCV,"6 h, dose level Low",62.4 fL
same,Mono,"6 h, dose level Low",2.4%
same,Neu,"6 h, dose level Low",15.8%
same,PT,"6 h, dose level Low",13.9 s
same,Plat,"6 h, dose level Low",115.7 x10_4/uL
same,RBC,"6 h, dose level Low",624 x10_4/ul
same,Ret,"6 h, dose level Low",8.9%
same,WBC,"6 h, dose level Low",71.4 x10_2/uL
same,KIDNEY_L,"6 h, dose level High",0.8 g
same,KIDNEY_R,"6 h, dose level High",0.9 g
same,KIDNEY_TOTAL,"6 h, dose level High",1.7 g
same,KIDNEY_R,"6 h, dose level Low",0.8 g
same,LIVER,"6 h, dose level High",8.4 g
same,LIVER,"6 h, dose level Low",7.6 g
same,ALP,"6 h, dose level High",1569.4 IU/L
same,ALT,"6 h, dose level High",39.2 IU/L
same,AST,"6 h, dose level High",74.8 IU/L
same,BUN,"6 h, dose level High",10.2 mg/dL
same,CRE,"6 h, dose level High",0.1 mg/dL
same,Ca,"6 h, dose level High",10.7 mg/dL
same,Cl,"6 h, dose level High",106.8 meq/L
same,DBIL,"6 h, dose level High",0 mg/dL
same,GLC,"6 h, dose level High",185.8 mg/dL
same,IP,"6 h, dose level High",10.4 mg/dL
same,K,"6 h, dose level High",4.5 meq/L
same,LDH,"6 h, dose level High",216.8 IU/L
same,Na,"6 h, dose level High",143.2 meq/L
same,PL,"6 h, dose level High",144 mg/dL
same,RALB,"6 h, dose level High",2.9 g/dL
same,TBIL,"6 h, dose level High",0.032 mg/dL
same,TC,"6 h, dose level High",81.8 mg/dL
same,TP,"6 h, dose level High",5.4 g/dL
same,gamma-GTP,"6 h, dose level High",1.2 IU/L
same,ALP,"6 h, dose level Low",1365.4 IU/L
same,ALT,"6 h, dose level Low",33.2 IU/L
same,AST,"6 h, dose level Low",70.4 IU/L
same,BUN,"6 h, dose level Low",8.4 mg/dL
same,CRE,"6 h, dose level Low",0.2 mg/dL
same,Ca,"6 h, dose level Low",10.9 mg/dL
same,Cl,"6 h, dose level Low",107 meq/L
same,DBIL,"6 h, dose level Low",0.014 mg/dL
same,GLC,"6 h, dose level Low",168.2 mg/dL
same,IP,"6 h, dose level Low",9 mg/dL
same,K,"6 h, dose level Low",4.3 meq/L
same,LDH,"6 h, dose level Low",83.8 IU/L
same,Na,"6 h, dose level Low",142 meq/L
same,PL,"6 h, dose level Low",141.6 mg/dL
same,RALB,"6 h, dose level Low",2.5 g/dL
same,TBIL,"6 h, dose level Low",0.072 mg/dL
same,TC,"6 h, dose level Low",79 mg/dL
same,TP,"6 h, dose level Low",5.3 g/dL
same,TERMINAL_BW,"9 h, dose level High",185.5 g
same,TERMINAL_BW,"9 h, dose level Low",184.1 g
same,APTT,"9 h, dose level High",20.7 s
same,Bas,"9 h, dose level High",0%
same,Eos,"9 h, dose level High",0.8%
same,Fbg,"9 h, dose level High",320.4 mg/dL
same,Hb,"9 h, dose level High",13.2 g/dL
same,Ht,"9 h, dose level High",39.3%
same,Lym,"9 h, dose level High",78%
same,MCH,"9 h, dose level High",21 pg
same,MCHC,"9 h, dose level High",33.6%
same,MCV,"9 h, dose level High",62.4 fL
same,Mono,"9 h, dose level High",2.2%
same,Neu,"9 h, dose level High",19%
same,PT,"9 h, dose level High",16.2 s
same,Plat,"9 h, dose level High",113.9 x10_4/uL
same,RBC,"9 h, dose level High",631 x10_4/ul
same,Ret,"9 h, dose level High",7.3%
same,WBC,"9 h, dose level High",57.8 x10_2/uL
same,APTT,"9 h, dose level Low",16.7 s
same,Eos,"9 h, dose level Low",1%
same,Fbg,"9 h, dose level Low",285.6 mg/dL
same,Hb,"9 h, dose level Low",12.7 g/dL
same,Ht,"9 h, dose level Low",37.6%
same,Lym,"9 h, dose level Low",75%
same,MCH,"9 h, dose level Low",20.8 pg
same,MCHC,"9 h, dose level Low",33.7%
same,MCV,"9 h, dose level Low",61.8 fL
same,Neu,"9 h, dose level Low",21.4%
same,PT,"9 h, dose level Low",14 s
same,Plat,"9 h, dose level Low",120.4 x10_4/uL
same,RBC,"9 h, dose level Low",608.4 x10_4/ul
same,Ret,"9 h, dose level Low",8.8%
same,WBC,"9 h, dose level Low",67.8 x10_2/uL
same,KIDNEY_L,"9 h, dose level High",0.8 g
same,KIDNEY_R,"9 h, dose level High",0.9 g
same,KIDNEY_TOTAL,"9 h, dose level High",1.7 g
same,KIDNEY_R,"9 h, dose level Low",0.8 g
same,KIDNEY_TOTAL,"9 h, dose level Low",1.6 g
same,LIVER,"9 h, dose level High",7.5 g
same,LIVER,"9 h, dose level Low",6.9 g
same,ALP,"9 h, dose level High",1487.4 IU/L
same,ALT,"9 h, dose level High",34.8 IU/L
same,AST,"9 h, dose level High",67.4 IU/L
same,BUN,"9 h, dose level High",9.2 mg/dL
same,CRE,"9 h, dose level High",0.2 mg/dL
same,Ca,"9 h, dose level High",10.5 mg/dL
same,Cl,"9 h, dose level High",107.4 meq/L
same,DBIL,"9 h, dose level High",0.002 mg/dL
same,GLC,"9 h, dose level High",186 mg/dL
same,IP,"9 h, dose level High",10.1 mg/dL
same,K,"9 h, dose level High",3.9 meq/L
same,LDH,"9 h, dose level High",185.4 IU/L
same,Na,"9 h, dose level High",143.4 meq/L
same,PL,"9 h, dose level High",123.8 mg/dL
same,RALB,"9 h, dose level High",3 g/dL
same,TBIL,"9 h, dose level High",0.032 mg/dL
same,TC,"9 h, dose level High",69.2 mg/dL
same,TP,"9 h, dose level High",5.4 g/dL
